Assay results from PubChem BioAssay (NCI).
Where “and” joins values, the source holds several entries; their conditions need not be identical. Identical values can stand only once.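 Results reflect a 48-hour exposure of cells in 96-well plates to compound at five concentrations. Here, GI50 denotes the concentration required for 50% inhibition of growth. TGI marks complete inhibition of growth.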

What was measured:
Assay in all cases: NCI tumour cell line growth inhibition, 48 h
[1] = system: DMS 273 small cell lung
[2] = system: LXFL 529 NSCLC
[3] = system: M19-MEL melanoma
[4] = system: DMS 114 small cell lung
[5] = system: KM20L2 colon
[6] = system: XF 498 CNS
[7] = system: P388/ADR leukemia
[8] = system: SN12K1 renal
[9] = system: HOP-18 NSCLC
[10] = system: SNB-78 CNS
[11] = system: RXF-631 renal
[12] = system: P388 leukemia

| Compound | TGI [1] | TGI [2] [µM] | TGI [3] | TGI [4] [µM] | TGI [5] [µM] | TGI [6] [µM] | GI50 [1] [µM] | GI50 [7] [µM] | TGI [7] [µM] | GI50 [8] [µM] | TGI [8] | GI50 [9] | TGI [9] | GI50 [10] [µM] | TGI [10] [µM] | TGI [11] [µM] | TGI [12] [µM] | GI50 [3] [µM] | GI50 [12] [µM] | GI50 [5] [µM] |
| --- | --- | --- | --- | --- | --- | --- | --- | --- | --- | --- | --- | --- | --- | --- | --- | --- | --- | --- | --- | --- |
| Cn1c(=O)n(CC2CS2)c2ccccc21 (centres undefined) | > 100 µM | > 100 | > 100 µM | > 100 | > 100 | > 100 |  |  |  |  |  |  |  |  |  |  |  |  |  |  |
| CCC1(OC(=O)CN)C(=O)OCc2c1cc1n(c2=O)Cc2cc3cc4c(cc3nc2-1)OCO4 (centres undefined) | 0.0656 µM and 0.358 µM |  | 1.04 µM and 0.416 µM |  |  |  | < 0.01 | < 0.01 | < 0.01 | < 0.01 | 0.225 µM and 1.04 µM | 0.166 µM and 0.0534 µM | 2.63 µM and 2.24 µM | 0.468 | 81.8 |  |  |  |  |  |
| O=c1c(O)cccn1C1OC(CO)C(O)C1O (centres undefined) | > 100 µM | > 100 |  | > 100 | > 100 |  |  |  |  |  |  |  | > 100 µM |  | > 100 | > 100 |  |  |  |  |
| C=CCCCCn1c2ccccc2c2c(C)c3cnccc3c(C)c21 | 20.5 µM |  |  | 16.8 | 31.9 | 4.36 |  |  | 15.8 |  | 44.3 µM |  | 35.6 µM |  | 46.3 |  | 10.2 |  |  |  |
| C[C@]12CCC(=O)C=C1CC[C@@H]1[C@@H]2[C@@H](O)C[C@@]2(C)[C@H]1CC[C@]2(O)C(=O)COC(=O)CCC1CCCC1 | > 100 µM | > 100 | > 100 µM | > 100 | > 100 | > 100 |  |  |  |  |  |  |  |  | > 100 |  |  |  |  |  |
| CS(=O)(=O)[O-].CS(=O)(=O)[O-].NC1CCCCC1N.[Pt+4] (centres undefined) |  |  | > 100 µM |  | > 100 |  |  | 43 | > 100 | > 100 | > 100 µM | > 100 µM | > 100 µM | > 100 | > 100 |  | > 55.7 | 34.2 | 4.81 | > 51.3 |
